Data from publication PMC9399405, “CD8 T cell function and cross-reactivity explored by stepwise increased peptide-HLA versus TCR affinity” (Frontiers in Immunology, 2022).

System: HLA-A2
Test: Blue peptide (Cy5-labeled HBVc) kinetic and isotherm determination
Format: binding, human
Description: In short, for kon measurements on T2 (HLA-A2^pos) and C1R-A3 (HLA-A2^neg) cells, baseline Cy5 cell auto-fluorescence was recorded for 30s with an LSRII instrument. Titrated amounts of Cy5-labeled HBVc blue peptide (from 1 pM to 1 uM final concentration) were then added to the tube and association of the blue peptide to HLA-A2 was recorded for 5 minutes. For koff dissociation assays, 2x10^6 HLA-A2^pos (T2) and HLA-A2^neg (C1R-A3) cells were stained with 1 μM blue peptide and incubated for 1h in the dark. After washing, baseline Cy5 staining was recorded for 30s, before adding excess of FACS buffer and recording fluorescence intensity (gMFI) for 1h under temperature control. Additionally, isotherm titration experiments were performed to validate the value of the blue peptide dissociation equilibrium constant KD. Cells were stained with titrated amounts of the blue peptide (from 1 pM to 1 uM) for 1h at 4°C or 37°C. After washing, Cy5 gMFI was recorded on an LSRII instrument to determine concentration-associated maximal staining at equilibrium conditions (n = 5). All kinetic and isotherm analyses were done with the corresponding best fit equations using Prism software (GraphPad, v.9.1.1) and correction of non-specific staining values found on control HLA-A2^neg cells (nonlinear regression for kon = association kinetics - one conc. of ligand, for koff = dissociation/one phase exponential decay and for KD = one site - total and nonspecific binding).

[1] = HLA-A2pos and HLA-A2neg cells in parallel, flow cytometry

For FLPSDC*-(Cy5)-FPSV [blue peptide], which “peptide:HLA association kon” value [1] is on record?
Its value is 23000 M⁻¹ s⁻¹.

And the “peptide:HLA dissociation koff” value [1]?
Its value is 0.0012 s⁻¹.

And the Kd (T2 (HLA-A2pos) vs C1R-A3 (HLA-A2neg) cells, isotherm titration 1 pM to 1 uM, 1h, n = 5, read-out: equilibrium dissociation constant KD for HLA-A2)?
Its Kd is 52.6 nM.
